Values after ≈ are worked out from the molar mass of the structure shown.
How the values were obtained:
[1] = system: Acinetobacter baumannii NCTC 13420; assay: MIC, broth microdilution (CLSI) versus planktonic bacteria; format: cell-based; details: NCTC13420; Acinetobacter baumannii NCTC 13420; 16-20 h; mode of three independent experiments; read-out: MIC, Ab NCTC 13420
[2] = system: Acinetobacter baumannii ATCC 19606; assay: as above; format: cell-based; details: ATCC19606; Acinetobacter baumannii ATCC 19606; 16-20 h; mode of three independent experiments; read-out: MIC, Ab ATCC 19606
[3] = system: Enterobacter cloacae NCTC 13406; assay: as above; format: cell-based; details: NCTC13406; Enterobacter cloacae NCTC 13406; 16-20 h; mode of three independent experiments; read-out: MIC, Ecl NCTC 13406
[4] = system: Escherichia coli ATCC 25922; assay: as above; format: cell-based; details: ATCC25922; Escherichia coli ATCC 25922; 16-20 h; mode of three independent experiments; read-out: MIC, Ec ATCC 25922
E. coli ATCC BAA-2452 = assay: as above; format: cell-based; details: Escherichia coli ATCC BAA-2452; 16-20 h; mode of three independent experiments; read-out: MIC, Ec ATCC BAA 2452
E. coli NCTC 13476 = assay: as above; format: cell-based; details: NCTC13476; Escherichia coli NCTC 13476; 16-20 h; mode of three independent experiments; read-out: MIC, Ec NCTC 13476
E. coli MG1655 = assay: as above; format: cell-based, Escherichia coli; details: Escherichia coli, MG1655, read-out: MIC, Ec MG1655 WT
[5] = system: Haemophilus influenzae ATCC 49247; assay: as above; format: cell-based; details: ATCC49247; Haemophilus influenzae ATCC 49247; 16-20 h; mode of three independent experiments; read-out: MIC, Hi ATCC 49247
[6] = system: Pseudomonas aeruginosa ATCC 27853; assay: as above; format: cell-based; details: ATCC27853; Pseudomonas aeruginosa ATCC 27853; 16-20 h; mode of three independent experiments; read-out: MIC, Pa ATCC 27853
[7] = system: Staphylococcus aureus ATCC 29213; assay: as above; format: cell-based; details: ATCC29213; Staphylococcus aureus ATCC 29213; 16-20 h; mode of three independent experiments; read-out: MIC, Sa ATCC 29213
[8] = system: Streptococcus pneumoniae ATCC 49619; assay: as above; format: cell-based; details: ATCC49619; Streptococcus pneumoniae ATCC 49619; 16-20 h; mode of three independent experiments; read-out: MIC, Sp ATCC 49619
E. coli MG1655 S83L = format: cell-based, Escherichia coli; details: compared to the isogenic parent strain E. coli MG1655; S83L mutation on DNA gyrase subunit GyrA
E. coli MG1655 D87G = format: cell-based, Escherichia coli; details: compared to the isogenic parent strain E. coli MG1655; D87G mutation on DNA gyrase subunit GyrA
[9] = system: human hepatic cell line (HepG2 ATCC HB-8065); assay: Human cell viability assay (CellTiter-Glo); details: Homo sapiens, HepG2, 24 h, read-out: IC50 (μg/mL) HepG2

| SMILES | MIC [1] | MIC [2] | MIC [3] | MIC [4] | MIC (E. coli ATCC BAA-2452) | MIC (E. coli NCTC 13476) | MIC (E. coli MG1655) | MIC [5] | MIC [6] | MIC [7] | MIC [8] | Fold increase in MIC, E. coli MG1655 S83L (E. coli MG1655 S83L) | Fold increase in MIC, E. coli MG1655 D87G (E. coli MG1655 D87G) | IC50 [9] |
| --- | --- | --- | --- | --- | --- | --- | --- | --- | --- | --- | --- | --- | --- | --- |
| O=C1COc2ccc(N3C(=O)O[C@@H]4C[C@@H](NCCn5c(=O)cnc6cc(F)c(F)cc65)CC[C@@H]43)nc2N1 [Compound 22, 1-(2-{[(3aS,6S,7aR)-2-oxo-3-{3-oxo-2H,3H,4H-pyrido[3,2-b][1,4]oxazin-6-yl}-octahydro-1,3-benzoxazol-6-yl]amino}ethyl)-6,7-difluoro-1,2-dihydroquinoxalin-2-one] | < 1 µg/mL | < 1 µg/mL | < 1 µg/mL | < 1 µg/mL | < 1 µg/mL | < 1 µg/mL | < 1 µg/mL | < 1 µg/mL | 1 to 10 µg/mL (≈ 1.95 to 19.5 µM) | < 1 µg/mL | < 1 µg/mL | 2 fold | 2 fold |  |
| N#Cc1cnc2ccc(=O)n(CCN[C@H]3CC[C@H]4[C@H](C3)OC(=O)N4c3ccc4c(n3)NC(=O)CO4)c2c1 [Compound 55, 5-(2-{[(3aS,6S,7aS)-2-oxo-3-{3-oxo-2H,3H,4H-pyrido[3,2-b][1,4]oxazin-6-yl}-octahydro-1,3-benzoxazol-6-yl]amino}ethyl)-6-oxo-5,6-dihydro-1,5-naphthyridine-3-carbonitrile] | < 1 µg/mL | < 1 µg/mL | < 1 µg/mL | < 1 µg/mL | < 1 µg/mL | < 1 µg/mL | < 1 µg/mL | < 1 µg/mL |  | < 1 µg/mL | < 1 µg/mL | 1 fold | 1 fold | > 100 µg/mL |
| N#Cc1ccc2ccc(=O)n(CCN[C@H]3CC[C@H]4[C@H](C3)OC(=O)N4c3ccc4c(n3)NC(=O)CO4)c2c1 [Compound 56, 1-(2-{[(3aS,6S,7aS)-2-oxo-3-{3-oxo-2H,3H,4H-pyrido[3,2-b][1,4]oxazin-6-yl}-octahydro-1,3-benzoxazol-6-yl]amino}ethyl)-2-oxo-1,2-dihydroquinoline-7-carbonitrile] | < 1 µg/mL | < 1 µg/mL | < 1 µg/mL | < 1 µg/mL | < 1 µg/mL | < 1 µg/mL | < 1 µg/mL | < 1 µg/mL |  | < 1 µg/mL | < 1 µg/mL | 1 fold | 2 fold | 10 to 100 µg/mL (≈ 20 to 200 µM) |
| COc1cc2c(ccc(=O)n2CCN[C@H]2CC[C@H]3[C@H](C2)OC(=O)N3c2ccc3c(n2)NC(=O)CO3)cn1 [Compound 62, 1-(2-{[(3aS,6S,7aS)-2-oxo-3-{3-oxo-2H,3H,4H-pyrido[3,2-b][1,4]oxazin-6-yl}-octahydro-1,3-benzoxazol-6-yl]amino}ethyl)-7-methoxy-1,2-dihydro-1,6-naphthyridin-2-one] | < 1 µg/mL | 1 to 10 µg/mL (≈ 1.97 to 19.7 µM) |  | < 1 µg/mL | 1 to 10 µg/mL (≈ 1.97 to 19.7 µM) | 1 to 10 µg/mL (≈ 1.97 to 19.7 µM) | 1 to 10 µg/mL (≈ 1.97 to 19.7 µM) | 1 to 10 µg/mL (≈ 1.97 to 19.7 µM) | 10 to 100 µg/mL (≈ 19.7 to 197 µM) | < 1 µg/mL | < 1 µg/mL | 1 fold | 0.5 fold |  |
| O=C1COc2ccc(N3C(=O)O[C@H]4C[C@@H](NCCn5c(=O)cnc6ccc(F)cc65)CC[C@@H]43)nc2N1 [Compound 84, 1-(2-{[(3aS,6S,7aS)-2-oxo-3-{3-oxo-2H,3H,4H-pyrido[3,2-b][1,4]oxazin-6-yl}-octahydro-1,3-benzoxazol-6-yl]amino}ethyl)-7-fluoro-1,2-dihydroquinoxalin-2-one] |  | < 1 µg/mL | < 1 µg/mL | < 1 µg/mL | < 1 µg/mL | < 1 µg/mL | < 1 µg/mL | < 1 µg/mL | 1 to 10 µg/mL (≈ 2.02 to 20.2 µM) | < 1 µg/mL | < 1 µg/mL | 1 fold | 1 fold | 10 to 100 µg/mL (≈ 20.2 to 202 µM) |
| O=C1COc2ccc(N3C(=O)O[C@H]4C[C@@H](NCCn5c(=O)ccc6ncc(OC(F)F)cc65)CC[C@@H]43)nc2N1 [Compound 98, 1-(2-{[(3aS,6S,7aS)-2-oxo-3-{3-oxo-2H,3H,4H-pyrido[3,2-b][1,4]oxazin-6-yl}-octahydro-1,3-benzoxazol-6-yl]amino}ethyl)-7-(difluoromethoxy)-1,2-dihydro-1,5-naphthyridin-2-one] | < 1 µg/mL | < 1 µg/mL | 1 to 10 µg/mL (≈ 1.84 to 18.4 µM) | < 1 µg/mL | < 1 µg/mL | 1 to 10 µg/mL (≈ 1.84 to 18.4 µM) | < 1 µg/mL | < 1 µg/mL | 1 to 10 µg/mL (≈ 1.84 to 18.4 µM) | < 1 µg/mL |  | 1 fold | 1 fold | > 100 µg/mL |
| O=C1COc2ccc(N3C(=O)O[C@H]4C[C@@H](NCCn5c(=O)ccc6ccc(OC(F)F)cc65)CC[C@@H]43)nc2N1 [Compound 101, 1-(2-{[(3aS,6S,7aS)-2-oxo-3-{3-oxo-2H,3H,4H-pyrido[3,2-b][1,4]oxazin-6-yl}-octahydro-1,3-benzoxazol-6-yl]amino}ethyl)-7-(difluoromethoxy)-1,2-dihydro quinolin-2-one] | < 1 µg/mL | < 1 µg/mL | 1 to 10 µg/mL (≈ 1.85 to 18.5 µM) | < 1 µg/mL | < 1 µg/mL | < 1 µg/mL | < 1 µg/mL |  | 1 to 10 µg/mL (≈ 1.85 to 18.5 µM) | < 1 µg/mL | < 1 µg/mL | 1 fold | 1 fold | 10 to 100 µg/mL (≈ 18.5 to 185 µM) |
| N#Cc1cccc(-c2cccc(CN[C@H]3CC[C@H]4[C@H](C3)OC(=O)N4c3ccc4c(n3)NC(=O)CO4)n2)c1 [Compound 105, 3-[6-({[(3aS,6S,7aS)-2-oxo-3-{3-oxo-2H,3H,4H-pyrido[3,2-b][1,4]oxazin-6-yl}-octahydro-1,3-benzoxazol-6-yl]amino}methyl)pyridin-2-yl]benzonitrile] | < 1 µg/mL | < 1 µg/mL | 1 to 10 µg/mL (≈ 2.01 to 20.1 µM) | < 1 µg/mL | < 1 µg/mL | 1 to 10 µg/mL (≈ 2.01 to 20.1 µM) | < 1 µg/mL | < 1 µg/mL | 1 to 10 µg/mL (≈ 2.01 to 20.1 µM) | < 1 µg/mL |  | 1 fold | 1 fold | 10 to 100 µg/mL (≈ 20.1 to 201 µM) |
